Experimental data from patent US9382255B2, “Substituted pyrrolopyrimidinylamino-benzothiazolones as MKNK kinase inhibitors” (BAYER PHARMA AKTIENGESELLSCHAFT, priority 2012, dated 2016).

These compounds were tested against T1, human full-length MKNK1 (Homo sapiens, UniProt Q9BUB5, T385D) (assay: MKNK1 kinase high ATP assay (TR-FRET)). Conditions: high ATP (2 mM final), 15 min preincubation with enzyme, GST-MKNK1 (T344D).
T1 construct: GST (N); purchased Carna Biosciences 02-145; host or cells: insect cells (baculovirus expression system)
T1 sequence (Q9BUB5 1-424 isoform Q9BUB5-2 T344D): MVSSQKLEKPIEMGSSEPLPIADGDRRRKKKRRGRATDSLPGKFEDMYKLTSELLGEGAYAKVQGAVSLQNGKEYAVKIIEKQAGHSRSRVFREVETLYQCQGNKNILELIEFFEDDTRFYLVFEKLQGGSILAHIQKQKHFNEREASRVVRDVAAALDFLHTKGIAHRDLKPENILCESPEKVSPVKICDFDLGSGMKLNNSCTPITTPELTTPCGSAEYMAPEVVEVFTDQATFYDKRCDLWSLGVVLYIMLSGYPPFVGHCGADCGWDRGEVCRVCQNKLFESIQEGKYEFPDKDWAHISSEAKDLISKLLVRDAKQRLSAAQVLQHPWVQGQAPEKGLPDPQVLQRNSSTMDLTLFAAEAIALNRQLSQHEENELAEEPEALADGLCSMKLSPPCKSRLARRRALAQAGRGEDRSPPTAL
Format: biochemical
Experimental: MKNK1 Kinase High ATP Assay
MKNK1-inhibitory activity at high ATP of compounds of the present invention after their preincubation with MKNK1 was quantified employing the TR-FRET-based MKNK1 high ATP assay as described in the following paragraphs.
A recombinant fusion protein of Glutathione-S-Transferase (GST, N-terminally) and human full-length MKNK1 (amino acids 1-424 and T344D of accession number BAA 19885.1), expressed in insect cells using baculovirus expression system and purified via glutathione sepharose affinity chromatography, was purchased from Carna Biosciences (product no 02-145) and used as enzyme. As substrate for the kinase reaction the biotinylated peptide biotin-Ahx-IKKRKLTRRKSLKG (C-terminus in amide form) was used, which can be purchased e.g. from the company Biosyntan (Berlin-Buch, Germany).
For the assay 50 nL of a 100 fold concentrated solution of the test compound in DMSO was pipetted into a black low volume 384 well microtiter plate (Greiner Bio-One, Frickenhausen, Germany), 2 μL of a solution of MKNK1 in aqueous assay buffer [50 mM HEPES pH 7.5, 5 mM MgCL2, 1.0 mM dithiothreitol, 0.005% (v/v) Nonidet-P40 (Sigma)] was added and the mixture was incubated for 15 min at 22° C. to allow pre-binding of the test compounds to the enzyme before the start of the kinase reaction. Then the kinase reaction was started by the addition of 3 μL of a solution of adenosine-tri-phosphate (ATP, 3.3 mM=>final conc. in the 5 μL assay volume is 2 mM) and substrate (0.1 μM=>final conc. in the 5 μL assay volume is 0.06 μM) in assay buffer and the resulting mixture was incubated for a reaction time of 30 min at 22° C. The concentration of MKNK1 was adjusted depending of the activity of the enzyme lot and was chosen appropriate to have the assay in the linear range, typical concentrations were in the range of 0.003 μg/mL. The reaction was stopped by the addition of 5 μL of a solution of TR-FRET detection reagents (5 nM streptavidine-XL665 [Cisbio Bioassays, Codolet, France] and 1 nM anti-ribosomal protein S6 (pSer236)-antibody from Invitrogen [#44921G] and 1 nM LANCE EU-W1024 Labeled ProteinG [Perkin-Elmer, product no. AD0071]) in an aqueous EDTA-solution (100 mM EDTA, 0.1% (w/v) bovine serum albumin in 50 mM HEPES pH 7.5).
The resulting mixture was incubated for 1 h at 22° C. to allow the formation of complex between the phosphorylated biotinylated peptide and the detection reagents. Subsequently the amount of phosphorylated substrate was evaluated by measurement of the resonance energy transfer from the Eu-chelate to the streptavidine-XL. Therefore, the fluorescence emissions at 620 nm and 665 nm after excitation at 350 nm were measured in a TR-FRET reader, e.g. a Rubystar (BMG Labtechnologies, Offenburg, Germany) or a Viewlux (Perkin-Elmer). The ratio of the emissions at 665 nm and at […] was taken as the measure for the amount of phosphorylated substrate. The data were normalised (enzyme reaction without inhibitor=0% inhibition, all other assay components but no enzyme=100% inhibition).

Going from O=C(c1[nH]c2ncnc(Nc3ccc4[nH]c(=O)sc4c3)c2c1Br)N1CCCCC1 [Example 33, 6-{[5-Bromo-6-(piperidin-1-ylcarbonyl)-7H-pyrrolo[2,3-d]pyrimidin-4-yl]amino}-1,3-benzothiazol-2(3H)-one] to O=C(c1cc2c(Nc3ccc4[nH]c(=O)sc4c3)ncnc2[nH]1)N1CCCCC1 [Example 36, 6-{[6-(Piperidin-1-ylcarbonyl)-7H-pyrrolo[2,3-d]pyrimidin-4-yl]amino}-1,3-benzothiazol-2(3H)-one], the IC50 falls from 24 nM to 14 nM (1.7-fold). The second is the more potent here.

C[C@@H]1COCCN1C(=O)c1cc2c(Nc3ccc4[nH]c(=O)sc4c3)ncnc2[nH]1 [Example 34] and C[C@H]1COCCN1C(=O)c1cc2c(Nc3ccc4[nH]c(=O)sc4c3)ncnc2[nH]1 [Example 35] are within 1.5-fold of each other in IC50: 39 nM for the first, 47 nM for the second.
